Assay results: ChEMBL document CHEMBL1153577, “2D- and 3D-QSAR studies on 54 anti-tumor Rubiaceae-type cyclopeptides” (Eur J Med Chem, 2009)

System: P388
Experiment: Cytotoxicity against mouse P388 cell
Format: functional, cell-based
Details: for IC50: Mus musculus, P388

| Compound | IC50 [µM] | pIC50 (p388) |
| --- | --- | --- |
| COc1ccc(C[C@H]2C(=O)N[C@@H](C)C(=O)N(C)[C@H]3Cc4ccc(c(O)c4)Oc4cc(ccc4O)C[C@@H](C(=O)N[C@H](C)C(=O)N[C@@H](C)C(=O)N2C)N(C)C3=O)cc1 | 9.12 |  |
| COc1ccc(C[C@H]2C(=S)N[C@@H](C)C(=O)N(C)[C@H]3Cc4ccc(cc4)Oc4cc(ccc4OC)C[C@@H](C(=O)N[C@H](C)C(=S)N[C@@H](C)C(=O)N2C)N(C)C3=O)cc1 | 0.0055 |  |
| COc1ccc(C[C@H]2C(=O)N[C@@H](C)C(=O)N(C)[C@H]3Cc4ccc(cc4)Oc4cc(ccc4OC)C[C@@H](C(=O)N[C@H](C)C(=O)N[C@@H](CC=O)C(=O)N2C)N(C)C3=O)cc1 | 0.0339 |  |
| COc1ccc(C[C@H]2C(=O)N[C@@H](C)C(=O)N(C)[C@H]3Cc4ccc(cc4)Oc4cc(ccc4OC)C[C@@H](C(=S)N[C@H](C)C(=O)N[C@@H](C)C(=O)N2C)N(C)C3=O)cc1 | 0.00331 |  |
| COc1ccc(C[C@H]2C(=O)N[C@@H](C)C(=O)N(C)[C@H]3Cc4ccc(c(O)c4)Oc4cc(ccc4OC)C[C@@H](C(=O)N[C@H](C)C(=O)N[C@@H](C)C(=O)N2C)N(C)C3=O)cc1O | 15.1 |  |
| COc1ccc(C[C@H]2C(=S)N[C@@H](C)C(=O)N(C)[C@H]3Cc4ccc(cc4)Oc4cc(ccc4OC)C[C@@H](C(=O)N[C@H](C)C(=O)N[C@@H](C)C(=S)N2C)N(C)C3=O)cc1 | 0.00162 |  |
| COc1ccc(C[C@H]2C(=O)N[C@@H](C)C(=O)N(C)[C@H]3Cc4ccc(cc4)Oc4cc(ccc4OC)C[C@@H](C(=O)N[C@H](C)C(=O)N[C@@H](CCC(=O)O)C(=O)N2C)N(C)C3=O)cc1 | 0.219 |  |
| C[C@@H]1NC(=O)[C@@H](C)NC(=O)[C@@H]2Cc3cccc(c3)Oc3ccc(cc3)C[C@@H](C(=O)N2C)N(C)C(=O)[C@H](C)NC(=O)[C@H](Cc2ccccc2)N(C)C1=O | 0.525 |  |
| CCC[C@@H]1NC(=O)[C@@H](C)NC(=O)[C@@H]2Cc3ccc(OC)c(c3)Oc3ccc(cc3)C[C@@H](C(=O)N2C)N(C)C(=O)[C@H](C)NC(=O)[C@H](Cc2ccc(OC)cc2)N(C)C1=O | 0.0138 |  |
| C=CC[C@@H]1NC(=O)[C@@H](C)NC(=O)[C@@H]2Cc3ccc(OC)c(c3)Oc3ccc(cc3)C[C@@H](C(=O)N2C)N(C)C(=O)[C@H](C)NC(=O)[C@H](Cc2ccc(OC)cc2)N(C)C1=O | 0.0389 |  |
| COC(=O)CC[C@@H]1NC(=O)[C@@H](C)NC(=O)[C@@H]2Cc3ccc(OC)c(c3)Oc3ccc(cc3)C[C@@H](C(=O)N2C)N(C)C(=O)[C@H](C)NC(=O)[C@H](Cc2ccc(OC)cc2)N(C)C1=O | 0.0589 |  |
| COc1ccc(C[C@H]2C(=O)N[C@@H](C)C(=O)N(C)[C@H]3Cc4ccc(cc4)Oc4cc(ccc4OC)C[C@@H](C(=O)N[C@H](C)C(=O)N[C@@H](CC(=O)O)C(=O)N2C)N(C)C3=O)cc1 | 1.2 |  |
| COC(=O)C[C@@H]1NC(=O)[C@@H](C)NC(=O)[C@@H]2Cc3ccc(OC)c(c3)Oc3ccc(cc3)C[C@@H](C(=O)N2C)N(C)C(=O)[C@H](C)NC(=S)[C@H](Cc2ccc(OC)cc2)N(C)C1=O | 0.00479 |  |
| CCCc1ccc(C[C@H]2C(=O)N[C@@H](C)C(=O)N(C)[C@H]3Cc4ccc(cc4)Oc4cc(ccc4OC)C[C@@H](C(=O)N[C@H](C)C(=O)N[C@@H](C)C(=O)N2C)N(C)C3=O)cc1 | 0.0257 |  |
| COc1ccc(C[C@H]2C(=O)N[C@@H](C)C(=O)N(C)[C@H]3Cc4ccc(c(O)c4)Oc4cc(ccc4OC)C[C@@H](C(=O)N[C@H](C)C(=O)N[C@@H](C)C(=O)N2C)N(C)C3=O)cc1 (stereo in doubt; 39) | 4.79 |  |
| COc1ccc(C[C@H]2C(=O)N[C@@H](C)C(=O)N(C)[C@H]3Cc4ccc(cc4)Oc4cc(ccc4OC)C[C@@H](C(=O)N[C@H](C)C(=O)NC4(SCCS4)C(=O)N2C)N(C)C3=O)cc1 | 0.631 |  |
| COc1ccc(C[C@H]2C(=O)N[C@@H](C)C(=O)N(C)[C@H]3Cc4ccc(cc4)Oc4cc(ccc4OC)C[C@@H](C(=O)N[C@H](C)C(=O)N[C@@H](C)C(=O)N2C)N(C)C3=O)cc1O | 0.214 |  |
| COc1ccc(C[C@H]2C(=O)N[C@@H](C)C(=O)N(C)[C@H]3Cc4ccc(cc4)Oc4cc(ccc4OC)C[C@@H](C(=O)N[C@H](C)C(=O)N4CCCC[C@H]4C(=O)N2C)N(C)C3=O)cc1 | 0.0977 |  |
| COc1ccc(C[C@H]2C(=O)N[C@@H](C)C(=O)N(C)[C@H]3Cc4ccc(c(O)c4)Oc4cc(ccc4OC)C[C@@H](C(=O)N[C@H](C)C(=O)N[C@@H](C)C(=O)N2C)N(C)C3=O)cc1 (stereo in doubt; 40) |  | 5.24 |
| C/C=C/c1ccc(C[C@H]2C(=O)N[C@@H](C)C(=O)N(C)[C@H]3Cc4ccc(cc4)Oc4cc(ccc4OC)C[C@@H](C(=O)N[C@H](C)C(=O)N[C@@H](C)C(=O)N2C)N(C)C3=O)cc1 | 0.00501 |  |
| COc1ccc(C[C@H]2C(=O)N[C@@H](C)C(=O)N(C)[C@H]3Cc4ccc(cc4)Oc4cc(ccc4OC)C[C@@H](C(=O)N[C@H](C)C(=O)N4C(=O)CC[C@H]4C(=O)N2C)N(C)C3=O)cc1 | 0.457 |  |

| Compound | IC50 [µM] | pIC50 (p388) |
| --- | --- | --- |
| COc1ccc(C[C@H]2C(=O)N[C@@H](C)C(=O)N(C)[C@H]3Cc4ccc(cc4)Oc4cc(ccc4O)C[C@@H](C(=O)N[C@H](C)C(=O)N[C@@H](C)C(=O)N2C)N(C)C3=O)cc1 [DEOXYBOUVARDIN] | 0.00355 |  |
| COc1ccc(C[C@H]2C(=O)N[C@@H](C)C(=O)N(C)[C@H]3Cc4ccc(cc4)Oc4cc(ccc4OC)C[C@@H](C(=O)N[C@H](C)C(=O)N[C@@H](CCCO)C(=O)N2C)N(C)C3=O)cc1 | 0.174 |  |
| COc1ccc(C[C@H]2C(=O)N[C@@H](C)C(=O)N(C)[C@H]3Cc4ccc(cc4)Oc4cc(ccc4OC)C[C@@H](C(=O)N[C@H](C)C(=O)N[C@@H](CCSC)C(=O)N2C)N(C)C3=O)cc1 | 0.0204 |  |
| COc1ccc(C[C@H]2C(=O)N[C@@H](C)C(=O)N(C)[C@H]3Cc4ccc(cc4)Oc4cc(ccc4OC)C[C@@H](C(=O)N[C@H](C)C(=O)N[C@@H](CCCN=[N+]=[N-])C(=O)N2C)N(C)C3=O)cc1 | 0.0355 |  |
| C=C[C@@H]1NC(=O)[C@@H](C)NC(=O)[C@@H]2Cc3ccc(OC)c(c3)Oc3ccc(cc3)C[C@@H](C(=O)N2C)N(C)C(=O)[C@H](C)NC(=O)[C@H](Cc2ccc(OC)cc2)N(C)C1=O | 0.0257 |  |
| COC(=O)C[C@@H]1NC(=O)[C@@H](C)NC(=O)[C@@H]2Cc3ccc(OC)c(c3)Oc3ccc(cc3)C[C@@H](C(=O)N2C)N(C)C(=O)[C@H](C)NC(=O)[C@H](Cc2ccc(OC)cc2)N(C)C1=O | 0.0417 |  |
| COc1ccc(C[C@H]2C(=O)N[C@@H](C)C(=O)N(C)[C@H]3Cc4ccc(cc4)Oc4cc(ccc4OC)C[C@@H](C(=O)N[C@H](C)C(=O)N[C@@H](CS)C(=O)N2C)N(C)C3=O)cc1 | 0.363 |  |
| C[C@@H]1NC(=O)[C@@H](C)NC(=O)[C@@H]2Cc3ccc(O)c(c3)Oc3ccc(cc3)C[C@@H](C(=O)N2C)N(C)C(=O)[C@H](C)NC(=O)[C@H](Cc2ccccc2)N(C)C1=O | 0.0427 |  |
| COc1ccc(C[C@H]2C(=S)N[C@@H](C)C(=O)N(C)[C@H]3Cc4ccc(cc4)Oc4cc(ccc4OC)C[C@@H](C(=O)N[C@H](C)C(=O)N[C@@H](C)C(=O)N2C)N(C)C3=O)cc1 | 0.000741 |  |
| COc1ccc(C[C@H]2C(=O)N[C@@H](C)C(=O)N(C)[C@H]3Cc4ccc(cc4)Oc4cc(ccc4OC)C[C@@H](C(=O)N[C@H](C)C(=O)N[C@@H](CSC(C)=O)C(=O)N2C)N(C)C3=O)cc1 | 0.00977 |  |
| COc1ccc2cc1Oc1ccc(cc1)C[C@H]1C(=O)N(C)[C@@H](C2)C(=O)N[C@H](C)C(=O)N[C@@H](C)C(=O)N(C)[C@@H](Cc2ccccc2)C(=O)N[C@@H](C)C(=O)N1C | 0.295 |  |
| COc1ccc(C[C@H]2C(=O)N[C@@H](C)C(=O)N(C)[C@H]3Cc4ccc(cc4)Oc4cc(ccc4OC)C[C@@H](C(=O)N[C@H](C)C(=O)N[C@@H](CCO)C(=O)N2C)N(C)C3=O)cc1 | 0.0603 |  |
| COc1ccc(C[C@H]2C(=O)N[C@@H](C)C(=O)N(C)[C@H]3Cc4ccc(cc4)Oc4cc(ccc4OC)C[C@@H](C(=O)N[C@H](C)C(=O)N4CCC[C@H]4C(=O)N2C)N(C)C3=O)cc1 | 0.1 |  |
| CCc1ccc(C[C@H]2C(=O)N[C@@H](C)C(=O)N(C)[C@H]3Cc4ccc(cc4)Oc4cc(ccc4OC)C[C@@H](C(=O)N[C@H](C)C(=O)N[C@@H](C)C(=O)N2C)N(C)C3=O)cc1 | 0.00933 |  |
| COc1ccc2cc1Oc1ccc(cc1)C[C@H]1C(=O)N(C)[C@@H](C2)C(=O)N[C@H](C)C(=O)N[C@@H](C)C(=O)N(C)[C@@H](Cc2ccc(C)cc2)C(=O)N[C@@H](C)C(=O)N1C | 0.024 |  |
| C=Cc1ccc(C[C@H]2C(=O)N[C@@H](C)C(=O)N(C)[C@H]3Cc4ccc(cc4)Oc4cc(ccc4OC)C[C@@H](C(=O)N[C@H](C)C(=O)N[C@@H](C)C(=O)N2C)N(C)C3=O)cc1 | 0.017 |  |
| COc1ccc(C[C@H]2C(=O)N[C@@H](C)C(=O)N(C)[C@H]3Cc4ccc(cc4)Oc4cc(ccc4OC)C[C@@H](C(=O)N[C@H](C)C(=O)N[C@@H](CCCCO)C(=O)N2C)N(C)C3=O)cc1 | 0.219 |  |
| COc1ccc(C[C@H]2C(=S)N[C@@H](C)C(=O)N(C)[C@H]3Cc4ccc(cc4)Oc4cc(ccc4O)C[C@@H](C(=O)N[C@H](C)C(=O)N[C@@H](C)C(=O)N2C)N(C)C3=O)cc1 | 0.00115 |  |
| COc1ccc(C[C@H]2C(=S)N[C@@H](C)C(=O)N(C)[C@H]3Cc4ccc(cc4)Oc4cc(ccc4OC)C[C@@H](C(=S)N[C@H](C)C(=O)N[C@@H](C)C(=O)N2C)N(C)C3=O)cc1 | 0.00214 |  |
| COc1ccc(C[C@@H]2NC(=O)[C@H](C)NC(=O)[C@@H](C)NC(=O)[C@@H]3Cc4ccc(OC)c(c4)Oc4ccc(cc4)C[C@@H](C(=O)N3C)N(C)C(=O)[C@H](C)NC2=O)cc1 | 0.12 |  |
| COc1ccc(C[C@H]2C(=O)N[C@@H](C)C(=O)N(C)[C@H]3Cc4ccc(cc4)Oc4cc(ccc4OC)C[C@@H](C(=O)N[C@H](C)C(=O)N[C@@H](CO)C(=O)N2C)N(C)C3=O)cc1 | 0.0141 |  |
